Laboratory results: patent publication US20240308996A1, “PYRIDOPYRIDINES AND DERIVATIVES THEREOF AS SELECTIVE KINASE INHIBITORS” (University of Sharjah, priority 2023, published 2024)

Assays:
UACC-257 = test: NCI-60 cell line panel: UACC-257; assay type: cell-based; details: Melanoma
Method: (§1) It was carried out at the NCI, Bethesda, MD, USA, utilizing their standard protocol.

T-47D = test: NCI-60 cell line panel: T-47D; assay type: cell-based; details: Breast Cancer
Method: as §1

PC-3 = test: NCI-60 cell line panel: PC-3; assay type: cell-based; details: Prostate Cancer
Method: as §1

MOLT-4 = test: NCI-60 cell line panel: MOLT-4; assay type: cell-based; parameters: TGI: unit not given here; details: Leukemia
Method: as §1

OVCAR-4 = test: NCI-60 cell line panel: OVCAR-4; assay type: cell-based; details: Ovarian Cancer
Method: as §1

OVCAR-5 = test: NCI-60 cell line panel: OVCAR-5; assay type: cell-based; details: Ovarian Cancer
Method: as §1

HOP-62 = test: NCI-60 cell line panel: HOP-62; assay type: cell-based; details: Non-Small Cell Lung Cancer
Method: as §1

HCT-116 = test: NCI-60 cell line panel: HCT-116; assay type: cell-based; details: Colon Cancer
Method: as §1

Flt4 = Flt4 (Homo sapiens, UniProt P35916); test: Kinase IC50, Flt4
Sequence of Flt4 (P35916 25-1363): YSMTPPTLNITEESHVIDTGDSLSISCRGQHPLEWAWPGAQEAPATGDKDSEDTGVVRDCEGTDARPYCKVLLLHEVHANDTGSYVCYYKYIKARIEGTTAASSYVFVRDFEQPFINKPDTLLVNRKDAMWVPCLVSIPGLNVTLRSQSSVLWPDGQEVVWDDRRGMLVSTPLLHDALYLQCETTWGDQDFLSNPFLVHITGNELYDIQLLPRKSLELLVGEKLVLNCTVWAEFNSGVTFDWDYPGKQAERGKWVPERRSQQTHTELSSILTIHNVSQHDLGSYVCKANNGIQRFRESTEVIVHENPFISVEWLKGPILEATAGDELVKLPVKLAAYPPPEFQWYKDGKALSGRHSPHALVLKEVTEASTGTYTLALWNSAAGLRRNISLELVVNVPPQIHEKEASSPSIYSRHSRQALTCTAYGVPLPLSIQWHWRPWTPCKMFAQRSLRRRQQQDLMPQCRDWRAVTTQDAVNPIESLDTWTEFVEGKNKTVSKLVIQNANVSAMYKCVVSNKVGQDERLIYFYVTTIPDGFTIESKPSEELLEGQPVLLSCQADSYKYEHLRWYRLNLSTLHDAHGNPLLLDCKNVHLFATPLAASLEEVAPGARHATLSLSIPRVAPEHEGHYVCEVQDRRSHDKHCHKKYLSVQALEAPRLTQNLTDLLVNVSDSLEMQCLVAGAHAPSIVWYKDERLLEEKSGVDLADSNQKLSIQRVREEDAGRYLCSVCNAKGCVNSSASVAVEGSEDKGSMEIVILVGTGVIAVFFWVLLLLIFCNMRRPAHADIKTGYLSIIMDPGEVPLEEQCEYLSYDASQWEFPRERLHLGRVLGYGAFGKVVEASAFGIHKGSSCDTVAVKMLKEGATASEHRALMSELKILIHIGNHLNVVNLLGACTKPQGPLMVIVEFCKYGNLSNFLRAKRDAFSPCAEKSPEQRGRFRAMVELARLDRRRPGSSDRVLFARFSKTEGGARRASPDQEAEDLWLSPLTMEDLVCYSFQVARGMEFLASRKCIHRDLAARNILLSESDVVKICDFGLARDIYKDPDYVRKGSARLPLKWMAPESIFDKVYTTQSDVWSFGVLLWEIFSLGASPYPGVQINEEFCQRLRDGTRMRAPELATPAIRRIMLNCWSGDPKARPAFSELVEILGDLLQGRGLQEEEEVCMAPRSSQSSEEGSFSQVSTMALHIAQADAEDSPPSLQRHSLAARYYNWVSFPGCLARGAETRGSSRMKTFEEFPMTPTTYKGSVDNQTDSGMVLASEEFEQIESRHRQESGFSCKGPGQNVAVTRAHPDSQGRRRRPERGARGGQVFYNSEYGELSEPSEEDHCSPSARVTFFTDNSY

MCF7 = test: NCI-60 cell line panel: MCF7; assay type: cell-based; details: Breast Cancer
Method: as §1

NCI-H226 = test: NCI-60 cell line panel: NCI-H226; assay type: cell-based; details: Non-Small Cell Lung Cancer
Method: as §1

MALME-3M = test: NCI-60 cell line panel: MALME-3M; assay type: cell-based; details: Melanoma
Method: as §1

SF-539 = test: NCI-60 cell line panel: SF-539; assay type: cell-based; details: CNS Cancer
Method: as §1

BT-549 = test: NCI-60 cell line panel: BT-549; assay type: cell-based; details: Breast Cancer
Method: as §1

NCI-H460 = test: NCI-60 cell line panel: NCI-H460; assay type: cell-based; details: Non-Small Cell Lung Cancer
Method: as §1

EKVX = test: NCI-60 cell line panel: EKVX; assay type: cell-based; details: Non-Small Cell Lung Cancer
Method: as §1

[1] = system: hepatocellular carcinoma cell lines; test: Screening against HCC cell lines; assay type: cell-based
Method: The target compounds were tested against hepatocellular carcinoma cell lines. Compounds 1j. 13a. 13b. 13c. […] The mean inhibition percentage values are illustrated in Table 9.
Two HCC cell lines (Hep3B and HepG2) were used for screening the antiproliferative activity of the synthesized compounds. The cell lines were obtained from the European Collection of Cell Cultures (ECACC, UK) and maintained in Dulbecco's Modified Eagle Medium (DMEM: Sigma-Aldrich) supplemented with 10% fetal bovine serum (FBS) and 1% penicillin/streptomycin and incubated at 37° C. in a 5% CO2 air atmosphere. In addition, WI-38 normal cell line was used to investigate the safety of these compounds.
MTT assay was conducted to calculate the IC50 of the compounds following the reported procedure . Briefly, the cells were seeded in 96-well tissue culture plates with a density of 5×10^4 cells/well and incubated overnight at 37° C. in a 5% CO2 air atmosphere. After that, cells were treated with the newly synthesized compounds or sorafenib as a positive control. DMSO was used as a negative control. After 48 h, the media were aspirated, and replaced with media containing 0.5 mg/mL of MTT tetrazolium dye (Sigma-Aldrich) for 2 h at 37° C. Finally, the media were removed and 200 μL of DMSO was added to solubilize the formazan crystals. Absorbance was then measured at 570 nm using Varioskan Flash multimode plate reader (Thermo Scientific, Massachusetts, USA).

SF-295 = test: NCI-60 cell line panel: SF-295; assay type: cell-based; details: CNS Cancer
Method: as §1

SNB-19 = test: NCI-60 cell line panel: SNB-19; assay type: cell-based; details: CNS Cancer
Method: as §1

NCI/ADR-RES = test: NCI-60 cell line panel: NCI/ADR-RES; assay type: cell-based; parameters: TGI: unit not given here; details: Ovarian Cancer
Method: as §1

MDA-MB-468 = test: NCI-60 cell line panel: MDA-MB-468; assay type: cell-based; details: Breast Cancer
Method: as §1

MDA-MB-231/ATCC = test: NCI-60 cell line panel: MDA-MB-231/ATCC; assay type: cell-based; details: Breast Cancer
Method: as §1

CAKI-1 = test: NCI-60 cell line panel: CAKI-1; assay type: cell-based; parameters: TGI: unit not given here; details: Renal Cancer
Method: as §1

SNB-75 = test: NCI-60 cell line panel: SNB-75; assay type: cell-based; parameters: TGI: unit not given here; details: CNS Cancer
Method: as §1

TK-10 = test: NCI-60 cell line panel: TK-10; assay type: cell-based; details: Renal Cancer
Method: as §1

OVCAR-3 = test: NCI-60 cell line panel: OVCAR-3; assay type: cell-based; details: Ovarian Cancer
Method: as §1

U251 = test: NCI-60 cell line panel: U251; assay type: cell-based; parameters: TGI: unit not given here
Method: as §1

SK-MEL-2 = test: NCI-60 cell line panel: SK-MEL-2; assay type: cell-based; parameters: TGI: unit not given here; details: Melanoma
Method: as §1

UO-31 = test: NCI-60 cell line panel: UO-31; assay type: cell-based; parameters: TGI: unit not given here; details: Renal Cancer
Method: as §1

COLO 205 = test: NCI-60 cell line panel: COLO 205; assay type: cell-based; parameters: TGI: unit not given here; details: Colon Cancer
Method: as §1

[2] = total growth inhibition, in µM (unit assumed)

CNC(=O)c1cc(-c2ccc(NC(=O)Nc3ccc(N4CCN(C)CC4)c(C(F)(F)F)c3)cc2)nc2cccnc12 [Compound 13b, N-Methyl-2-(4-(3-(4-(4-methylpiperazin-1-yl)-3-(trifluoromethyl)phenyl)ureido)phenyl)-1,5-naphthyridine-4-carboxamide]
IC50 (UACC-257; Homo sapiens): 15.3 µM
TGI (UACC-257; total growth inhibition): 28.8 µM
TGI (T-47D; total growth inhibition): 43.4 µM
IC50 (T-47D; Homo sapiens, T47D): 17 µM
IC50 (PC-3; Homo sapiens): 15.1 µM
TGI (PC-3; total growth inhibition): 30.1 µM
IC50 (MOLT-4; Homo sapiens): 2.79 µM
TGI (MOLT-4; total growth inhibition): 14.9
IC50 (OVCAR-4; Homo sapiens): 15.7 µM
TGI (OVCAR-4; [2]): 31.6
IC50 (OVCAR-5; Homo sapiens): 15.6 µM
TGI (OVCAR-5; total growth inhibition): 29 µM
IC50 (HOP-62; Homo sapiens): 16.4 µM
TGI (HOP-62; total growth inhibition): 32.2 µM
TGI (HCT-116; total growth inhibition): 75.6 µM
IC50 (HCT-116; Homo sapiens): 4.09 µM
IC50 (Flt4): 0.3663 ± 0.0005 µM
TGI (MCF7; total growth inhibition): 3.45 µM
IC50 (MCF7; Homo sapiens): 1.67 µM
IC50 (NCI-H226; Homo sapiens): 18 µM
TGI (NCI-H226; total growth inhibition): 39.7 µM
IC50 (MALME-3M; Homo sapiens): 1.68 µM
TGI (MALME-3M; [2]): 3.21
TGI (SF-539; total growth inhibition): 26.5 µM
IC50 (SF-539; Homo sapiens): 13.6 µM
TGI (BT-549; total growth inhibition): 35.3 µM
IC50 (BT-549; Homo sapiens): 16.5 µM
IC50 (NCI-H460; Homo sapiens): 3.19 µM
TGI (NCI-H460; total growth inhibition): 10.2 µM
IC50 (EKVX; Homo sapiens): 17.9 µM
TGI (EKVX; [2]): 33.9
inhibition activity against hepatocellular carcinoma cell lines compared with sorafenib [1]: higher inhibition activity than sorafenib
TGI (SF-295; total growth inhibition, unit assumed): 36.9 µM
IC50 (SF-295; Homo sapiens): 18 µM
TGI (SNB-19; total growth inhibition): 33.2 µM
IC50 (SNB-19; Homo sapiens): 16.8 µM
IC50 (NCI/ADR-RES; Homo sapiens): 14.2 µM
TGI (NCI/ADR-RES; total growth inhibition): 45.4
TGI (MDA-MB-468; total growth inhibition): 32.9 µM
IC50 (MDA-MB-468; Homo sapiens): 14.8 µM
TGI (MDA-MB-231/ATCC; total growth inhibition): 38.1 µM
IC50 (MDA-MB-231/ATCC; Homo sapiens): 17.5 µM
IC50 (CAKI-1; Homo sapiens): 16.1 µM
TGI (CAKI-1; total growth inhibition): 29.6
TGI (SNB-75; total growth inhibition): 28.4
IC50 (SNB-75; Homo sapiens): 14.9 µM
IC50 (TK-10; Homo sapiens): 18.5 µM
TGI (TK-10; total growth inhibition): 33.2 µM
IC50 (OVCAR-3; Homo sapiens): 9.59 µM
TGI (OVCAR-3; total growth inhibition): 25.8 µM
TGI (U251; CNS Cancer, total growth inhibition): 14.7
IC50 (U251; Homo sapiens, U-251, CNS Cancer): 3.43 µM
IC50 (SK-MEL-2; Homo sapiens): ≥ 100 µM
TGI (SK-MEL-2; total growth inhibition): 100
IC50 (UO-31; Homo sapiens): 15.3 µM
TGI (UO-31; total growth inhibition): 29.2
TGI (COLO 205; total growth inhibition): 32.8
IC50 (COLO 205; Homo sapiens): 16.8 µM
